Laboratory results published in PubChem BioAssay (NCI).
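Tested at 5 concentrations; 48 h exposure; 96-well plates; endpoints linearly interpolated, else capped at highest concentration. Abbreviation: GI50, concentration required for 50% inhibition of growth. TGI: concentration producing complete growth inhibition.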

Legend:
Assay in all cases: DTP human tumour cell line panel, 48 h
A498 renal = tested on: A498 renal
A549 NSCLC = tested on: A549 NSCLC
ACHN renal = tested on: ACHN renal
BT-549 breast = tested on: BT-549 breast
CAKI-1 renal = tested on: CAKI-1 renal
CCRF-CEM leukemia = tested on: CCRF-CEM leukemia
COLO 205 colon = tested on: COLO 205 colon
DU-145 prostate = tested on: DU-145 prostate
EKVX NSCLC = tested on: EKVX NSCLC
HCC-2998 colon = tested on: HCC-2998 colon
HCT-116 colon = tested on: HCT-116 colon
HCT-15 colon = tested on: HCT-15 colon
HL-60(TB) leukemia = tested on: HL-60(TB) leukemia
HOP-62 NSCLC = tested on: HOP-62 NSCLC
HOP-92 NSCLC = tested on: HOP-92 NSCLC
HS 578T breast = tested on: HS 578T breast
HT29 colon = tested on: HT29 colon
IGROV1 ovarian = tested on: IGROV1 ovarian
K-562 leukemia = tested on: K-562 leukemia
KM12 colon = tested on: KM12 colon
LOX IMVI melanoma = tested on: LOX IMVI melanoma
M14 melanoma = tested on: M14 melanoma
MALME-3M melanoma = tested on: MALME-3M melanoma
MCF7 breast = tested on: MCF7 breast
MDA-MB-231 breast = tested on: MDA-MB-231 breast
MDA-MB-435 = tested on: MDA-MB-435
MOLT-4 leukemia = tested on: MOLT-4 leukemia
NCI-H226 lung = tested on: NCI-H226 lung
NCI-H23 lung = tested on: NCI-H23 lung
NCI-H460 lung = tested on: NCI-H460 lung
NCI-H522 lung = tested on: NCI-H522 lung
NCI/ADR-RES ovarian = tested on: NCI/ADR-RES ovarian
OVCAR-3 ovarian = tested on: OVCAR-3 ovarian
OVCAR-4 ovarian = tested on: OVCAR-4 ovarian
OVCAR-5 ovarian = tested on: OVCAR-5 ovarian
OVCAR-8 ovarian = tested on: OVCAR-8 ovarian
PC-3 prostate = tested on: PC-3 prostate
RPMI-8226 leukemia = tested on: RPMI-8226 leukemia
RXF 393 renal = tested on: RXF 393 renal
SF-268 CNS = tested on: SF-268 CNS
SF-295 CNS = tested on: SF-295 CNS
SF-539 CNS = tested on: SF-539 CNS
SK-MEL-2 melanoma = tested on: SK-MEL-2 melanoma
SK-MEL-28 melanoma = tested on: SK-MEL-28 melanoma
SK-MEL-5 melanoma = tested on: SK-MEL-5 melanoma
SK-OV-3 ovarian = tested on: SK-OV-3 ovarian
SN12C renal = tested on: SN12C renal
SNB-19 CNS = tested on: SNB-19 CNS
SNB-75 CNS = tested on: SNB-75 CNS
SR leukemia = tested on: SR leukemia
SW-620 colon = tested on: SW-620 colon
T-47D breast = tested on: T-47D breast
TK-10 renal = tested on: TK-10 renal
U251 CNS = tested on: U251 CNS
UACC-257 melanoma = tested on: UACC-257 melanoma
UACC-62 melanoma = tested on: UACC-62 melanoma
UO-31 renal = tested on: UO-31 renal

SMILES: CCc1ccc(-c2nnc(COc3ccc(-c4nc5ccc(C)cc5[nH]4)cc3OC)o2)cc1
- GI50 (A498 renal): 1.97 µM
- TGI (A498 renal): 4.72 µM
- GI50 (A549 NSCLC): 4.21 µM
- TGI (A549 NSCLC): > 100 µM
- GI50 (ACHN renal): 1.78 µM
- TGI (ACHN renal): 3.19 µM
- GI50 (BT-549 breast): 1.96 µM
- TGI (BT-549 breast): 4.34 µM
- GI50 (CAKI-1 renal): 2.07 µM
- TGI (CAKI-1 renal): 4.92 µM
- GI50 (CCRF-CEM leukemia): 3.06 µM
- TGI (CCRF-CEM leukemia): > 100 µM
- GI50 (COLO 205 colon): 8.39 µM
- TGI (COLO 205 colon): 96 µM
- GI50 (DU-145 prostate): 5.98 µM
- TGI (DU-145 prostate): > 100 µM
- GI50 (EKVX NSCLC): 4.14 µM
- TGI (EKVX NSCLC): > 100 µM
- GI50 (HCC-2998 colon): 11.4 µM
- TGI (HCC-2998 colon): > 100 µM
- GI50 (HCT-116 colon): 3.19 µM
- TGI (HCT-116 colon): 11.2 µM
- GI50 (HCT-15 colon): 2.82 µM
- TGI (HCT-15 colon): 10.3 µM
- GI50 (HL-60(TB) leukemia): 2.01 µM
- TGI (HL-60(TB) leukemia): 4.26 µM
- GI50 (HOP-62 NSCLC): 2.44 µM
- TGI (HOP-62 NSCLC): 6.46 µM
- GI50 (HOP-92 NSCLC): 2.07 µM
- TGI (HOP-92 NSCLC): 5.83 µM
- GI50 (HS 578T breast): 2.07 µM
- TGI (HS 578T breast): 5.01 µM
- GI50 (HT29 colon): 3.66 µM
- TGI (HT29 colon): > 100 µM
- GI50 (IGROV1 ovarian): 4.94 µM
- TGI (IGROV1 ovarian): > 100 µM
- GI50 (K-562 leukemia): 3.12 µM
- TGI (K-562 leukemia): > 100 µM
- GI50 (KM12 colon): 5.39 µM
- TGI (KM12 colon): > 100 µM
- GI50 (LOX IMVI melanoma): 1.98 µM
- TGI (LOX IMVI melanoma): 4.25 µM
- GI50 (M14 melanoma): 2.27 µM
- TGI (M14 melanoma): 5.84 µM
- GI50 (MALME-3M melanoma): 1.56 µM
- TGI (MALME-3M melanoma): 3.11 µM
- GI50 (MCF7 breast): 3.36 µM
- TGI (MCF7 breast): > 100 µM
- GI50 (MDA-MB-231 breast): 2.05 µM
- TGI (MDA-MB-231 breast): 4.87 µM
- GI50 (MDA-MB-435): 2.51 µM
- TGI (MDA-MB-435): 6.97 µM
- GI50 (MOLT-4 leukemia): 3.26 µM
- TGI (MOLT-4 leukemia): > 100 µM
- GI50 (NCI-H226 lung): 2.01 µM
- TGI (NCI-H226 lung): 4.28 µM
- GI50 (NCI-H23 lung): 4.52 µM
- TGI (NCI-H23 lung): 54.4 µM
- GI50 (NCI-H460 lung): 3.38 µM
- TGI (NCI-H460 lung): 18.4 µM
- GI50 (NCI-H522 lung): 3.1 µM
- TGI (NCI-H522 lung): 25.2 µM
- GI50 (NCI/ADR-RES ovarian): 3.28 µM
- TGI (NCI/ADR-RES ovarian): 37.5 µM
- GI50 (OVCAR-3 ovarian): 2.23 µM
- TGI (OVCAR-3 ovarian): 4.49 µM
- GI50 (OVCAR-4 ovarian): 1.74 µM
- TGI (OVCAR-4 ovarian): 3.53 µM
- GI50 (OVCAR-5 ovarian): 5.21 µM
- TGI (OVCAR-5 ovarian): > 100 µM
- GI50 (OVCAR-8 ovarian): 5.08 µM
- TGI (OVCAR-8 ovarian): > 100 µM
- GI50 (PC-3 prostate): 2.96 µM
- TGI (PC-3 prostate): > 100 µM
- GI50 (RPMI-8226 leukemia): 2.26 µM
- TGI (RPMI-8226 leukemia): 5.75 µM
- GI50 (RXF 393 renal): 1.75 µM
- TGI (RXF 393 renal): 3.29 µM
- GI50 (SF-268 CNS): 4.47 µM
- TGI (SF-268 CNS): > 100 µM
- GI50 (SF-295 CNS): 2.33 µM
- TGI (SF-295 CNS): 5.75 µM
- GI50 (SF-539 CNS): 1.7 µM
- TGI (SF-539 CNS): 3.21 µM
- GI50 (SK-MEL-2 melanoma): 2.71 µM
- TGI (SK-MEL-2 melanoma): 7.81 µM
- GI50 (SK-MEL-28 melanoma): 2.36 µM
- TGI (SK-MEL-28 melanoma): 6.66 µM
- GI50 (SK-MEL-5 melanoma): 1.97 µM
- TGI (SK-MEL-5 melanoma): 4.09 µM
- GI50 (SK-OV-3 ovarian): 3.29 µM
- TGI (SK-OV-3 ovarian): 11.1 µM
- GI50 (SN12C renal): 2.2 µM
- TGI (SN12C renal): 5.52 µM
- GI50 (SNB-19 CNS): 4.63 µM
- TGI (SNB-19 CNS): > 100 µM
- GI50 (SNB-75 CNS): 1.41 µM
- TGI (SNB-75 CNS): 2.96 µM
- GI50 (SR leukemia): 2.08 µM
- TGI (SR leukemia): 5.22 µM
- GI50 (SW-620 colon): 3.75 µM
- TGI (SW-620 colon): 62.4 µM
- GI50 (T-47D breast): 2.15 µM
- TGI (T-47D breast): 5.22 µM
- GI50 (TK-10 renal): 2.72 µM
- TGI (TK-10 renal): 5.61 µM
- GI50 (U251 CNS): 2.32 µM
- TGI (U251 CNS): 5.79 µM
- GI50 (UACC-257 melanoma): 3.57 µM
- TGI (UACC-257 melanoma): 16.2 µM
- GI50 (UACC-62 melanoma): 2.12 µM
- TGI (UACC-62 melanoma): 5.09 µM
- GI50 (UO-31 renal): 1.63 µM
- TGI (UO-31 renal): 3.17 µM
